# In US8247211B2, “Glycopeptide antibiotics” (American Cyanamid Company, priority 2001, dated 2012):
# Columns and labels:
# Assay in all cases: In vitro antibacterial evaluation: minimum inhibitory concentration (MIC), broth dilution method
# Type in all cases: cell-based
# Enterococcus sp. = test system: Enterococcus sp.
# Procedure, shortened: (§1)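 First, organisms are seeded at 5×10^5 CFU/mL into Muller-Hinton II […]. Next, antibiotic is applied across 64-0.06 μg/mL by broth dilution (NCCLS M7-A2). Finally, the lowest inhibitory concentration is recorded as MIC.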
# Escherichia coli = test system: Escherichia coli
# Procedure, shortened: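 MIC read as lowest drug level preventing visible growth. Organisms at 5×10^5 CFU/mL were exposed to a 64-0.06 μg/mL dilution series in Muller-Hinton II […] following NCCLS broth dilution standard M7-A2.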
# Staphylococcus sp. = test system: Staphylococcus sp.
# Procedure, shortened: as §1
# Streptococcus sp. = test system: Streptococcus sp.
# Procedure, shortened: as §1
# [1] = broth dilution, inoculum 5×10^5 CFU/mL, 18 hours at 35° C.
# [2] = broth dilution, 5×10^5 CFU/mL, 18 hours at 35° C.
structure (smiles),measurement,setting,value
"CC(C1CCCCC1)C1NC(=O)CNC(=O)C(CO)NC(=O)C(C(O)C2CNC(=N)N2C2OC(CO)C(O)C(O)C2O)NC(=O)C(C(O)C2CNC(=N)N2)NC(=O)C(Cc2ccc(OC3OC(CO)C(OC4OC5COC(c6ccccc6)OC5C(O)C4O)C(O)C3O)cc2)NC1=O (centres unmarked) [Example 201, Cyclo[3-cyclohexyl-2-aminobutanoyl-O-[4-O-[4,6-O-benzylidenehexonyranosyl]hexopyranosyl]tyrosyl-3-(2-iminoimidazolidin-4-yl)seryl-3-(3-hexopyranosyl-2-iminoimidazolidin-4-yl)serylserylglycyl]]",MIC Enterococcus avium (GC 4558),"Enterococcus sp.; Enterococcus avium (GC 4558), 18 hours at 35° C.",1 µg/mL
same,MIC Enterococcus faecalis (ATCC 29212),"Enterococcus sp.; Enterococcus faecalis (ATCC 29212), 18 hours at 35° C.",1 µg/mL
same,MIC Enterococcus faecalis (GC 2242),"Enterococcus sp.; Enterococcus faecalis (GC 2242), 18 hours at 35° C.",1 µg/mL
same,MIC Enterococcus faecalis (GC 2691),"Enterococcus sp.; Enterococcus faecalis (GC 2691), 18 hours at 35° C.",1 µg/mL
same,MIC Enterococcus faecalis (GC 3059),"Enterococcus sp.; Enterococcus faecalis (GC 3059), 18 hours at 35° C.",1 µg/mL
same,MIC Enterococcus faecalis (GC 4552),"Enterococcus sp.; Enterococcus faecalis (GC 4552), 18 hours at 35° C.",1 µg/mL
same,MIC Enterococcus faecalis (GC 4553),"Enterococcus sp.; Enterococcus faecalis (GC 4553), 18 hours at 35° C.",1 µg/mL
same,MIC Enterococcus faecalis (GC 4554),"Enterococcus sp.; Enterococcus faecalis (GC 4554), 18 hours at 35° C.",1 µg/mL
same,MIC Enterococcus faecalis (GC 6189),"Enterococcus sp.; Enterococcus faecalis (GC 6189), 18 hours at 35° C.",1 µg/mL
same,MIC Enterococcus faecium (GC 2243),"Enterococcus sp.; Enterococcus faecium (GC 2243), 18 hours at 35° C.",1 µg/mL
same,MIC Enterococcus faecium (GC 4556),"Enterococcus sp.; Enterococcus faecium (GC 4556), 18 hours at 35° C.",1 µg/mL
same,MIC Enterococcus faecium (GC 4557),"Enterococcus sp.; Enterococcus faecium (GC 4557), 18 hours at 35° C.",0.5 µg/mL
same,MIC Enterococcus avium (GC 4558),Enterococcus sp.; [1],1 µg/mL
same,MIC Enterococcus faecalis (ATCC 29212),Enterococcus sp.; [1],1 µg/mL
same,MIC Enterococcus faecalis (GC 2242),Enterococcus sp.; [1],1 µg/mL
same,MIC Enterococcus faecalis (GC 2691),Enterococcus sp.; [1],1 µg/mL
same,MIC Enterococcus faecalis (GC 3059),Enterococcus sp.; [1],1 µg/mL
same,MIC Enterococcus faecalis (GC 4552),Enterococcus sp.; [1],1 µg/mL
same,MIC Enterococcus faecalis (GC 4553),Enterococcus sp.; [1],1 µg/mL
same,MIC Enterococcus faecalis (GC 4554),Enterococcus sp.; [1],1 µg/mL
same,MIC Enterococcus faecalis (GC 6189),Enterococcus sp.; [1],1 µg/mL
same,MIC Enterococcus faecium (GC 2243),Enterococcus sp.; [1],1 µg/mL
same,MIC Enterococcus faecium (GC 4556),Enterococcus sp.; [1],1 µg/mL
same,MIC Enterococcus faecium (GC 4557),Enterococcus sp.; [1],0.5 µg/mL
same,MIC Escherichia coli (ATCC 25922),"Escherichia coli; Escherichia coli (ATCC 25922), 18 hours at 35° C.",16 µg/mL
same,MIC Escherichia coli (GC 4559),"Escherichia coli; Escherichia coli (GC 4559), 18 hours at 35° C.",16 µg/mL
same,MIC Escherichia coli (GC 4560),"Escherichia coli; Escherichia coli (GC 4560), 18 hours at 35° C.",0.25 µg/mL
same,MIC Staphylococcus aureus (ATCC 29213),Staphylococcus sp.; strain ATCC 29213,0.25 µg/mL
same,MIC Staphylococcus aureus (GC 1131),Staphylococcus sp.; strain GC 1131,0.25 µg/mL
same,MIC Staphylococcus aureus (GC 3051),Staphylococcus sp.; strain GC 3051,0.5 µg/mL
same,MIC Staphylococcus aureus (GC 3053),Staphylococcus sp.; strain GC 3053,0.5 µg/mL
same,MIC Staphylococcus aureus (GC 4541),Staphylococcus sp.; strain GC 4541,0.5 µg/mL
same,MIC Staphylococcus aureus (GC 4542),Staphylococcus sp.; strain GC 4542,0.25 µg/mL
same,MIC Staphylococcus aureus-SMITH (GC 4543),Staphylococcus sp.; strain GC 4543,0.5 µg/mL
same,MIC Staphylococcus aureus (GC 4544),Staphylococcus sp.; strain GC 4544,0.25 µg/mL
same,MIC Staphylococcus aureus (GC 4545),Staphylococcus sp.; strain GC 4545,0.25 µg/mL
same,MIC Staphylococcus haemolyticus (GC 4546),Staphylococcus sp.; strain GC 4546,0.25 µg/mL
same,MIC Coagulase Negative Staphylococcus (GC 4547),Staphylococcus sp.; strain GC 4547,0.25 µg/mL
same,MIC Coagulase Negative Staphylococcus (GC 4548),Staphylococcus sp.; strain GC 4548,0.25 µg/mL
same,MIC Coagulase Negative Staphylococcus (GC 4549),Staphylococcus sp.; strain GC 4549,0.25 µg/mL
same,MIC Coagulase Negative Staphylococcus (GC 4551),Staphylococcus sp.; strain GC 4551,0.25 µg/mL
same,MIC Streptococcus agalactiae (GC 4564),"Streptococcus sp.; Streptococcus agalactiae (GC 4564), 18 hours at 35° C.",<0.12 µg/mL
same,MIC Streptococcus pneumoniae (ATCC 6301),"Streptococcus sp.; Streptococcus pneumoniae (ATCC 6301), 18 hours at 35° C.",<0.12 µg/mL
same,MIC Streptococcus pneumoniae (GC 1894),"Streptococcus sp.; Streptococcus pneumoniae (GC 1894), 18 hours at 35° C.",<0.12 µg/mL
same,MIC Streptococcus pneumoniae (GC 4565),"Streptococcus sp.; Streptococcus pneumoniae (GC 4565), 18 hours at 35° C.",<0.12 µg/mL
same,MIC Streptococcus pyogenes (GC 4563),"Streptococcus sp.; Streptococcus pyogenes (GC 4563), 18 hours at 35° C.",<0.12 µg/mL
same,MIC Streptococcus agalactiae (GC 4564),Streptococcus sp.; [1],<0.12 µg/mL
same,MIC Streptococcus pneumoniae (ATCC 6301),Streptococcus sp.; [1],<0.12 µg/mL
same,MIC Streptococcus pneumoniae (GC 1894),Streptococcus sp.; [1],<0.12 µg/mL
same,MIC Streptococcus pneumoniae (GC 4565),Streptococcus sp.; [1],<0.12 µg/mL
same,MIC Streptococcus pyogenes (GC 4563),Streptococcus sp.; [1],<0.12 µg/mL
"COc1cc(OC)cc(C2OC3C(OC4C(CO)OC(Oc5ccc(CC6NC(=O)C(C(C)c7ccccc7)NC(=O)CNC(=O)C(CO)NC(=O)C(C(O)C7CNC(=N)N7C7OC(CO)C(O)C(O)C7O)NC(=O)C(C(O)C7CNC(=N)N7)NC6=O)cc5)C(O)C4O)OC(CO)C(O)C3O2)c1 (stereo not drawn) [Example 150a, Cyclo[glycyl-β-methylphenylalanyl-O-[4-O-[2,3-O-(3,5-dimethoxybenzylidene)hexopyranosyl]-hexopyranosyl]tyrosyl-3-(2-iminoimidazolidin-4-yl)seryl-3-(3-hexopyranosyl-2-iminoimidazolidin-4-yl)serylseryl]]",MIC Enterococcus faecalis (ATCC 29212),Enterococcus sp.; strain ATCC 29212,>64 µg/mL
same,MIC Enterococcus faecalis (GC 2242),Enterococcus sp.; strain GC 2242,>64 µg/mL
same,MIC Enterococcus faecium (GC 2243),Enterococcus sp.; strain GC 2243,>64 µg/mL
same,MIC Enterococcus faecalis (GC 2691),Enterococcus sp.; strain GC 2691,>64 µg/mL
same,MIC Enterococcus faecalis (GC 3059),Enterococcus sp.; strain GC 3059,>64 µg/mL
same,MIC Enterococcus faecalis (GC 4552),Enterococcus sp.; strain GC 4552,>64 µg/mL
same,MIC Enterococcus faecalis (GC 4553),Enterococcus sp.; strain GC 4553,>64 µg/mL
same,MIC Enterococcus faecalis (GC 4554),Enterococcus sp.; strain GC 4554,>64 µg/mL
same,MIC Enterococcus faecium (GC 4556),Enterococcus sp.; strain GC 4556,>64 µg/mL
same,MIC Enterococcus faecium (GC 4557),Enterococcus sp.; strain GC 4557,16 µg/mL
same,MIC Enterococcus avium (GC 4558),Enterococcus sp.; strain GC 4558,64 µg/mL
same,MIC Enterococcus faecalis (GC 6189),Enterococcus sp.; strain GC 6189,>64 µg/mL
same,MIC Escherichia coli (ATCC 25922),Escherichia coli; strain ATCC 25922,>64 µg/mL
same,MIC Escherichia coli (GC 4559),Escherichia coli; strain GC 4559,>64 µg/mL
same,MIC Escherichi coli (GC 4560),Escherichia coli; strain GC 4560,16 µg/mL
same,MIC Coagulase Negative Staphylococcus (GC 4547),Staphylococcus sp.; [2],16 µg/mL
same,MIC Coagulase Negative Staphylococcus (GC 4548),Staphylococcus sp.; [2],8 µg/mL
same,MIC Coagulase Negative Staphylococcus (GC 4549),Staphylococcus sp.; [2],8 µg/mL
same,MIC Coagulase Negative Staphylococcus (GC 4551),Staphylococcus sp.; [2],32 µg/mL
same,MIC Coagulase Negative Staphylococcus (GC 6257),Staphylococcus sp.; [2],8 µg/mL
same,MIC Staphylococcus aureus (ATCC 29213),Staphylococcus sp.; [2],32 µg/mL
same,MIC Staphylococcus aureus (GC 1131),Staphylococcus sp.; [2],32 µg/mL
same,MIC Staphylococcus aureus (GC 3051),Staphylococcus sp.; [2],32 µg/mL
same,MIC Staphylococcus aureus (GC 3053),Staphylococcus sp.; [2],32 µg/mL
same,MIC Staphylococcus aureus (GC 4541),Staphylococcus sp.; [2],16 µg/mL
same,MIC Staphylococcus aureus (GC 4542),Staphylococcus sp.; [2],32 µg/mL
same,MIC Staphylococcus aureus (GC 4544),Staphylococcus sp.; [2],32 µg/mL
same,MIC Staphylococcus aureus (GC 4545),Staphylococcus sp.; [2],16 µg/mL
same,MIC Staphylococcus aureus-SMITH (GC 4543),Staphylococcus sp.; [2],16 µg/mL
same,MIC Staphylococcus haemolyticus (GC 4546),Staphylococcus sp.; [2],16 µg/mL
same,MIC Staphylococcus aureus (ATCC 29213),"Staphylococcus sp.; strain ATCC 29213, broth dilution, 18 hours at 35° C.",32 µg/mL
same,MIC Staphylococcus aureus (GC 1131),"Staphylococcus sp.; strain GC 1131, broth dilution, 18 hours at 35° C.",32 µg/mL
same,MIC Staphylococcus aureus (GC 3051),"Staphylococcus sp.; strain GC 3051, broth dilution, 18 hours at 35° C.",32 µg/mL
same,MIC Staphylococcus aureus (GC 3053),"Staphylococcus sp.; strain GC 3053, broth dilution, 18 hours at 35° C.",32 µg/mL
same,MIC Staphylococcus aureus (GC 4541),"Staphylococcus sp.; strain GC 4541, broth dilution, 18 hours at 35° C.",16 µg/mL
same,MIC Staphylococcus aureus (GC 4542),"Staphylococcus sp.; strain GC 4542, broth dilution, 18 hours at 35° C.",32 µg/mL
same,MIC Staphylococcus aureus-SMITH (GC 4543),"Staphylococcus sp.; strain GC 4543, broth dilution, 18 hours at 35° C.",16 µg/mL
same,MIC Staphylococcus aureus (GC 4544),"Staphylococcus sp.; strain GC 4544, broth dilution, 18 hours at 35° C.",32 µg/mL
same,MIC Staphylococcus aureus (GC 4545),"Staphylococcus sp.; strain GC 4545, broth dilution, 18 hours at 35° C.",16 µg/mL
same,MIC Staphylococcus haemolyticus (GC 4546),"Staphylococcus sp.; strain GC 4546, broth dilution, 18 hours at 35° C.",16 µg/mL
same,MIC Coagulase Negative Staphylococcus (GC 4547),"Staphylococcus sp.; strain GC 4547, broth dilution, 18 hours at 35° C.",16 µg/mL
same,MIC Coagulase Negative Staphylococcus (GC 4548),"Staphylococcus sp.; strain GC 4548, broth dilution, 18 hours at 35° C.",8 µg/mL
same,MIC Coagulase Negative Staphylococcus (GC 4549),"Staphylococcus sp.; strain GC 4549, broth dilution, 18 hours at 35° C.",8 µg/mL
same,MIC Coagulase Negative Staphylococcus (GC 4551),"Staphylococcus sp.; strain GC 4551, broth dilution, 18 hours at 35° C.",32 µg/mL
same,MIC Coagulase Negative Staphylococcus (GC 6257),"Staphylococcus sp.; strain GC 6257, broth dilution, 18 hours at 35° C.",8 µg/mL
same,MIC Streptococcus pneumoniae (ATCC 6301),Streptococcus sp.; strain ATCC 6301,8 µg/mL
same,MIC Streptococcus pneumoniae (GC 1894),Streptococcus sp.; strain GC 1894,8 µg/mL
same,MIC Streptococcus pyogenes (GC 4563),Streptococcus sp.; strain GC 4563,16 µg/mL
same,MIC Streptococcus agalactiae (GC 4564),Streptococcus sp.; strain GC 4564,32 µg/mL
same,MIC Streptococcus pneumoniae (GC 4565),Streptococcus sp.; strain GC 4565,16 µg/mL
